US12018011B2, “Macrocyclic compounds and compositions, and methods of preparing and using the same” (Kura Oncology, Inc., priority 2021, dated 2024)

Target: T1, Recombinant human farnesyl transferase (FTase) (Homo sapiens, UniProt P49356)
T1 construct: purchased Crelux (Martinsried, Germany)
Test: FTase fluorescence assay (farnesylation of dansyl-GCVLS peptide)
Format: biochemical
Conditions: recombinant human FTase 2.5 nM, Dansyl-GCVLS 85 nM, FPP 30 nM, 30° C., 50 minutes
Excerpt: T24/83 cell line was purchased from the European Collection of Authenticated Cell Cultures (Salisbury, UK). Recombinant human farnesyl transferase (FTase) and geranylgeranyl transferase type-1 (GGTase) were obtained from Crelux (Martinsried, Germany). Dansyl labelled GCVLS peptide was purchased from Bachem (Torrance, CA), and Dansyl labelled GCVLL peptide was purchased from Bio Synthesis (Lewisville, TX). Farnesyl Pyrophosphate (FPP) and Geranylgeranyl pyrophosphate (GGPP) were purchased from Cayman (Ann Arbor, MI).
Specific biochemical activity of the compounds disclosed herein as FTase inhibitors was determined by measuring the ability of the compounds to block the farnesylation by recombinant FTase of fluorescent (i.e., dansyl-labeled) test substrates derived from the CAAX box of farnesylated proteins, such as the peptide GCVLS.
The IC50 value of the compounds disclosed herein as inhibitors of Ftase and/or GGTase, was determined by measuring the concentration (provided in nM) necessary to achieve inhibition of enzyme activity by 50% (IC50). […] Compounds having a low IC50 value against FTase, for example an IC50 (FTase)<100 nM, such as an IC50 (FTase)<10 nM, are preferred. Compounds having a low IC50 value against FTase and a high IC50 value against GGTase, for example an IC50 (FTase)<100 nM, such as an IC50 (FTase)<10 nM, and an IC50 (GGTase)>100 nM, are potent and selective inhibitors of FTase, and are particularly preferred.
The inhibition activities of the compounds disclosed herein against Ftase and GGTase were measured in the respective fluorescence assays as follows:
For the FTase assay, recombinant human FTase (2.5 nM), Dansyl labelled GCVLS peptide (85 nM), FPP (30 nM) and inhibitor were mixed in assay buffer (50 mM Tris, pH 7.5, 10 mM magnesium chloride, 10 μM zinc chloride, 0.08% CHAPS, 5 mM dithiothreitol) and incubated in a total volume of 20 μL at 30° C. for 50 minutes.
For both the FTase assay and GGTase assay, fluorescence intensity was detected (excitation at 340 nm and emission at 486 nm) using EnVision (PerkinElmer; Waltham, MA), IC50 determinations were performed using a sigmoidal dose-response model with Xlfit software (IDBS, Inc.; Boston, MA), and tipifarnib was used as a positive control. All the assay plates for each assay passed the QC criteria (S/B, Z factor).

IC50 [nM]	SMILES
> 100	Cn1cncc1[C@]1(O)c2ccc(Cl)c(c2)OCc2cccc(c2)-c2cc(=O)n(C)c3ccc1cc23 (racemic) [(R)-14, (R)-4^4-chloro-3-hydroxy-2^1-methyl-3-(1-methyl-1H-imidazol-5-yl)-2^1,2^2-dihydro-5-oxa-2(4,6)-quinolina-1,4(1,3)-dibenzenacyclohexaphan-2^2-one]
> 100	Cn1cncc1[C@]1(O)c2ccc(C#N)c(c2)OCc2cccc(c2)-c2cc(=O)n(C)c3ccc1cc23 (racemic) [(R)-18, (R)-3-hydroxy-2^1-methyl-3-(1-methyl-1H-imidazol-5-yl)-2^2-oxo-2^1,2^2-dihydro-5-oxa-2(4,6)-quinolina-1,4(1,3)-dibenzenacyclohexaphane-4^4-carbonitrile]
> 100	Cn1cncc1[C@]1(N)c2ccc(C#N)c(c2)OCc2cccc(c2)-c2cc(=O)n(C)c3ccc1cc23 (racemic) [(R)-19, (R)-3-amino-2^1-methyl-3-(1-methyl-1H-imidazol-5-yl)-2^2-oxo-2^1,2^2-dihydro-5-oxa-2(4,6)-quinolina-1,4(1,3)-dibenzenacyclohexaphane-4^4-carbonitrile]
> 100	Cn1cncc1[C@]1(N)c2ccc(Cl)c(c2)OCCc2cccc(c2)-c2cc(=O)n(C)c3ccc1cc23 (racemic) [(R)-27, (R)-3-amino-4^4-chloro-2^1-methyl-3-(1-methyl-1H-imidazol-5-yl)-2^1,2^2-dihydro-5-oxa-2(4,6)-quinolina-1,4(1,3)-dibenzenacycloheptaphan-2^2-one]
> 100	[2H]C([2H])([2H])n1c(=O)cc2c3cc(ccc31)[C@](O)(c1cncn1C)c1ccc(Cl)c(c1)OCCc1cccc-2c1 (racemic) [(R)-28, (R)-4^4-chloro-3-hydroxy-2^1-(methyl-d3)-3-(1-methyl-1H-imidazol-5-yl)-2^1,2^2-dihydro-5-oxa-2(4,6)-quinolina-1,4(1,3)-dibenzenacycloheptaphan-2^2-one]
> 100	Cn1cncc1[C@]1(O)c2ccc(Cl)c(c2)OCCc2cccc(c2)-c2cc(=O)n(C3CC3)c3ccc1cc23 (racemic) [(R)-29, (R)-4^4-chloro-2^1-cyclopropyl-3-hydroxy-3-(1-methyl-1H-imidazol-5-yl)-2^1,2^2-dihydro-5-oxa-2(4,6)-quinolina-1,4(1,3)-dibenzenacycloheptaphan-2^2-one]
> 100	Cn1cncc1[C@]1(O)c2ccc(C#N)c(c2)OCCc2cccc(c2)-c2cc(=O)n(C)c3ccc1cc23 (racemic) [(R)-36, (R)-3-hydroxy-2^1-methyl-3-(1-methyl-1H-imidazol-5-yl)-2^2-oxo-2^1,2^2-dihydro-5-oxa-2(4,6)-quinolina-1,4(1,3)-dibenzenacycloheptaphane-4^4-carbonitrile]
> 100	Cn1cncc1[C@]1(N)c2ccc(C#N)c(c2)OCCc2cccc(c2)-c2cc(=O)n(C)c3ccc1cc23 (racemic) [(R)-37, (R)-3-amino-2^1-methyl-3-(1-methyl-1H-imidazol-5-yl)-2^2-oxo-2^1,2^2-dihydro-5-oxa-2(4,6)-quinolina-1,4(1,3)-dibenzenacycloheptaphane-4^4-carbonitrile]
> 100	Cn1cnnc1[C@]1(N)c2ccc(C#N)c(c2)OCCc2cccc(c2)-c2cc(=O)n(C)c3ccc1cc23 (racemic) [(R)-39, (R)-3-amino-21-methyl-3-(4-methyl-4H-1,2,4-triazol-3-yl)-2^2-oxo-2^1,2^2-dihydro-5-oxa-2(4,6)-quinolina-1,4(1,3)-dibenzenacycloheptaphane-4^4-carbonitrile]
> 100	[2H]C([2H])([2H])n1c(=O)cc2c3cc(ccc31)[C@](O)(c1cncn1C)c1ccc(C#N)c(c1)COc1cccc-2c1 (racemic) [(R)-55, (R)-3-hydroxy-21-(methyl-d3)-3-(1-methyl-1H-imidazol-5-yl)-2^2-oxo-2^1,2^2-dihydro-6-oxa-2(4,6)-quinolina-1,4(1,3)-dibenzenacyclohexaphane-4^4-carbonitrile]

Continued, compound first:

SMILES	IC50 [nM]
Cn1cncc1[C@]1(N)c2ccc(Cl)c(c2)CCc2cccc(c2)-c2cc(=O)n(C)c3ccc1cc23 (racemic) [(R)-4, (R)-3-amino-4^4-chloro-2^1-methyl-3-(1-methyl-1H-imidazol-5-yl)-2^1,2^2-dihydro-2(4,6)-quinolina-1,4(1,3)-dibenzenacyclohexaphan-2^2-one]	> 100
Cn1cncc1[C@]1(N)c2ccc(Cl)c(c2)OCc2cccc(c2)-c2cc(=O)n(C)c3ccc1cc23 (racemic) [(R)-15, (R)-3-amino-4^4-chloro-2^1-methyl-3-(1-methyl-1H-imidazol-5-yl)-2^1,2^2-dihydro-5-oxa-2(4,6)-quinolina-1,4(1,3)-dibenzenacyclohexaphan-2^2-one]	> 100
[2H]C([2H])([2H])n1c(=O)cc2c3cc(ccc31)[C@](N)(c1cncn1C)c1ccc(C#N)c(c1)OCc1cccc-2c1 (racemic) [(R)-20, (R)-3-amino-2^1-(methyl-d3)-3-(1-methyl-1H-imidazol-5-yl)-2^2-oxo-2^1,2^2-dihydro-5-oxa-2(4,6)-quinolina-1,4(1,3)-dibenzenacyclohexaphane-4^4-carbonitrile]	> 100
Cn1cncc1[C@]1(N)c2ccc(C#N)c(c2)OCc2cccc(c2)-c2cc(C#N)nc3ccc1cc23 (racemic) [(R)-21, (R)-3-amino-3-(1-methyl-1H-imidazol-5-yl)-5-oxa-2(4,6)-quinolina-1,4(1,3)-dibenzenacyclohexaphane-2^2,4^4-dicarbonitrile]	> 100
Cn1cncc1[C@]1(O)c2ccc(Cl)c(c2)OCCc2cccc(c2)-c2cc(=O)[nH]c3ccc1cc23 (racemic) [(R)-25, (R)-4^4-chloro-3-hydroxy-3-(1-methyl-1H-imidazol-5-yl)-2^1,2^2-dihydro-5-oxa-2(4,6)-quinolina-1,4(1,3)-dibenzenacycloheptaphan-2^2-one]	> 100
Cn1cncc1[C@]1(N)c2ccc(Cl)c(c2)OCCc2cccc(c2)-c2cc(=O)n(C3CC3)c3ccc1cc23 (racemic) [(R)-30, (R)-3-amino-4^4-chloro-2^1-cyclopropyl-3-(1-methyl-1H-imidazol-5-yl)-2^1,2^2-dihydro-5-oxa-2(4,6)-quinolina-1,4(1,3)-dibenzenacycloheptaphan-2^2-one]	> 100
[2H]C([2H])([2H])n1c(=O)cc2c3cc(ccc31)[C@](N)(c1nncn1C)c1ccc(Cl)c(c1)OCCc1cccc-2c1 (racemic) [(R)-34, (R)-3-amino-4^4-chloro-2^1-(methyl-d3)-3-(4-methyl-4H-1,2,4-triazol-3-yl)-2^1,2^2_ dihydro-5-oxa-2(4,6)-quinolina-1,4(1,3)-dibenzenacycloheptaphan-2^2-one]	> 100
Cn1cnnc1[C@]1(N)c2ccc(Cl)c(c2)OCCc2cccc(c2)-c2cc(=O)n(C3CC3)c3ccc1cc23 (racemic) [(R)-35, (R)-3-amino-4^4-chloro-2^1-cyclopropyl-3-(4-methyl-4H-1,2,4-triazol-3-yl)-2^1,2^2-dihydro-5-oxa-2(4,6)-quinolina-1,4(1,3)-dibenzenacycloheptaphan-2^2-one]	> 100
Cn1cncc1[C@]1(N)c2ccc(Cl)c(c2)COc2cccc(c2)-c2cc(=O)n(C)c3ccc1cc23 (racemic) [(R)-46, (R)-3-amino-4^4-chloro-2^1-methyl-3-(1-methyl-1H-imidazol-5-yl)-2^1,2^2-dihydro-6-oxa-2(4,6)-quinolina-1,4(1,3)-dibenzenacyclohexaphan-2^2-one]	> 100
[2H]C([2H])([2H])n1c(=O)cc2c3cc(ccc31)[C@](N)(c1cncn1C)c1ccc(Cl)c(c1)COc1cccc-2c1 (racemic) [(R)-47, (R)-3-amino-4^4-chloro-2^1-(methyl-d3)-3-(1-methyl-1H-imidazol-5-yl)-2^1,2^2-dihydro-6-oxa-2(4,6)-quinolina-1,4(1,3)-dibenzenacyclohexaphan-2^2-one]	> 100
Cn1cncc1[C@]1(N)c2ccc(Cl)c(c2)COc2cccc(c2)-c2cc(C#N)nc3ccc1cc23 (racemic) [(R)-48, (R)-3-amino-4^4-chloro-3-(1-methyl-1H-imidazol-5-yl)-6-oxa-2(4,6)-quinolina-1,4(1,3)-dibenzenacyclohexaphane-2^2-carbonitrile]	10 to 100
Cn1cnnc1[C@]1(N)c2ccc(Cl)c(c2)COc2cccc(c2)-c2cc(=O)n(C)c3ccc1cc23 (racemic) [(R)-51, (R)-3-amino-4^4-chloro-2^1-methyl-3-(4-methyl-4H-1,2,4-triazol-3-yl)-2^1,2^2-dihydro-6-oxa-2(4,6)-quinolina-1,4(1,3)-dibenzenacyclohexaphan-2^2-one]	> 100
